Data published in US20260138961A1, “MODULATORS OF MITOCHONDRIAL DNA REPLICATION” (Pretzel Therapeutics, Inc., priority 2022, published 2026).

target: T1, wild type human POLγ (POLγA:WT) (Homo sapiens, UniProt P54098); experiment: DNA polymerization assay, wild type POLγ; format: biochemical; conditions: 100 μM dNTP, read-out: WT AC50 (μM) at 100 μM
T1 sequence (P54098 1-1239): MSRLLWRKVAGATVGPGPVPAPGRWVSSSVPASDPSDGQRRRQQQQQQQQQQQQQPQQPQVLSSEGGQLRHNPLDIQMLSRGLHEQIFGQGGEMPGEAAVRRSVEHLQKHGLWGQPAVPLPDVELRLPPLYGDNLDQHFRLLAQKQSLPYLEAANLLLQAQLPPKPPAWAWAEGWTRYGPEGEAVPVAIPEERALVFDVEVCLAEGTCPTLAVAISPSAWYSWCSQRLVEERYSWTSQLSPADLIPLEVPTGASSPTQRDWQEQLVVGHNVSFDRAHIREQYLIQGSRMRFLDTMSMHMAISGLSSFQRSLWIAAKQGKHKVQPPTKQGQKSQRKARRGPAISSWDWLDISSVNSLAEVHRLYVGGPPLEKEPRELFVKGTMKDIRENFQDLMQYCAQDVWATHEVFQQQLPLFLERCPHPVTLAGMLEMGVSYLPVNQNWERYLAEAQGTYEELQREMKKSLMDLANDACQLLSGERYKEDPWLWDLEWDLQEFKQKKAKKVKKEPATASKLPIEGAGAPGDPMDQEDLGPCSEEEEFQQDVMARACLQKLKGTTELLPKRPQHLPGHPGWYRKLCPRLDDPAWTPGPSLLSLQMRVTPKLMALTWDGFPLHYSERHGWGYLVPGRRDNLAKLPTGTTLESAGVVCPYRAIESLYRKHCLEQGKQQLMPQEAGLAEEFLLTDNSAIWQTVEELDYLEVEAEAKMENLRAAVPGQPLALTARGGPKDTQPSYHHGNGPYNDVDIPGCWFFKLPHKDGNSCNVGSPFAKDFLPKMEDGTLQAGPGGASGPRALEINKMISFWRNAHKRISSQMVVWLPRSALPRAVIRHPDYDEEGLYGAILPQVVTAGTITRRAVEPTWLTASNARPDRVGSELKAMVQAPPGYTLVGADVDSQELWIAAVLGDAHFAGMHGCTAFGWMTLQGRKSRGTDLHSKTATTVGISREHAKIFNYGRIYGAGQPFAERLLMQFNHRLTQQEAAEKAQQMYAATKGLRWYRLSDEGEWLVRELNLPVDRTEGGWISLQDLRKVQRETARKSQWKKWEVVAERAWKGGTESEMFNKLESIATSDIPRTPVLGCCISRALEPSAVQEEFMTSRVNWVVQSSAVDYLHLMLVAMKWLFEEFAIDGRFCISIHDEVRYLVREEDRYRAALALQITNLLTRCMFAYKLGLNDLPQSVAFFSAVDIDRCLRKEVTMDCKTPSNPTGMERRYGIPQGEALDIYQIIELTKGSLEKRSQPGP
T1 sequence (Q9UHN1 1-485 partner): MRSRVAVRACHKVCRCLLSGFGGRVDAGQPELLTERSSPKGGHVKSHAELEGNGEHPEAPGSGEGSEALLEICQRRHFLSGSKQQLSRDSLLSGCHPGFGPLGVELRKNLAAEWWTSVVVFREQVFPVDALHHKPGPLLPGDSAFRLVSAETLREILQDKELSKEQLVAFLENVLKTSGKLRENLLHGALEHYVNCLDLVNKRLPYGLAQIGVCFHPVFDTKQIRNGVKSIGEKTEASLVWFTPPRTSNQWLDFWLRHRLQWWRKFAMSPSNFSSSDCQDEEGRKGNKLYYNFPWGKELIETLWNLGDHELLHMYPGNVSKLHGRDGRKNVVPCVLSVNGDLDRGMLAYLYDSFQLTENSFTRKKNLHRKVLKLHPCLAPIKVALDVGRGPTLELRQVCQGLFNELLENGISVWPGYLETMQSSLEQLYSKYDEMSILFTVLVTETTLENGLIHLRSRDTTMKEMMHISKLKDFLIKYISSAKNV

First: Cc1cc(S(=O)(=O)Nc2csc(C3CCOCC3)n2)c(C)cc1Cl [Example 167, 4-chloro-2,5-dimethyl-N-(2-(tetrahydro-2H-pyran-4-yl)thiazol-4-yl)benzenesulfonamide]
Second: Cc1cc(S(=O)(=O)Nc2csc(C(=O)N3CCC[C@H]3C)n2)c(C)cc1Cl [Example 174, (R)-4-chloro-2,5-dimethyl-N-(2-(2-methylpyrrolidine-1-carbonyl)thiazol-4-yl)benzenesulfonamide]
The AC50 of the first is 40-fold higher: 4 µM for the first, 0.1 µM for the second.

`Cc1cc(S(=O)(=O)Nc2cn(Cc3ccccc3)cn2)c(C)cc1Cl` [Example 168, N-(1-benzyl-1H-imidazol-4-yl)-4-chloro-2,5-dimethylbenzenesulfonamide] and `Cc1cc(S(=O)(=O)Nc2cn(-c3ccccc3)cn2)c(C)cc1Cl` [Example 169, 4-chloro-2,5-dimethyl-N-(1-phenyl-1H-imidazol-4-yl)benzenesulfonamide] cannot be ordered by AC50: > 10 µM for the first, > 10 µM for the second.

`Cc1cc(S(=O)(=O)Nc2cn(C)c(-c3ccccc3)n2)c(C)cc1Cl` [Example 170, 4-chloro-2,5-dimethyl-N-(1-methyl-2-phenyl-1H-imidazol-4-yl)benzenesulfonamide] and `Cc1cc(S(=O)(=O)Nc2nc(-c3ccccc3)n(C)n2)c(C)cc1Cl` [Example 180, 4-chloro-2,5-dimethyl-N-(1-methyl-5-phenyl-1H-1,2,4-triazol-3-yl)benzenesulfonamide] cannot be ordered by AC50: > 10 µM for the first, > 10 µM for the second.

Going from `Cc1cc(S(=O)(=O)Nc2cnn(-c3ccccc3)n2)c(C)cc1Cl` [Example 171, 4-chloro-2,5-dimethyl-N-(2-phenyl-2H-1,2,3-triazol-4-yl)benzenesulfonamide] to `Cc1cc(S(=O)(=O)Nc2csc(-n3cccn3)n2)c(C)cc1Cl` [Example 178, N-(2-(1H-pyrazol-1-yl)thiazol-4-yl)-4-chloro-2,5-dimethylbenzenesulfonamide], the AC50 rises from 5 µM to > 100 µM.

`Cc1cc(S(=O)(=O)Nc2csc(C(=O)N(C)CC(N)=O)n2)c(C)cc1Cl` [Example 172, N-(2-amino-2-oxoethyl)-4-((4-chloro-2,5-dimethylphenyl)sulfonamido)-N-methylthiazole-2-carboxamide] and `Cc1cc(S(=O)(=O)Nc2csc(C(=O)N(CC(N)=O)C3CCCC3)n2)c(C)cc1Cl` [Example 177, N-(2-amino-2-oxoethyl)-4-((4-chloro-2,5-dimethylphenyl)sulfonamido)-N-cyclopentylthiazole-2-carboxamide] cannot be ordered by AC50: > 100 µM for the first, > 100 µM for the second.

Going from `Cc1cc(S(=O)(=O)Nc2csc(-c3ccccn3)n2)c(C)cc1Cl` [Example 173, 4-chloro-2,5-dimethyl-N-(2-(pyridin-2-yl)thiazol-4-yl)benzenesulfonamide] to `Cc1cc(S(=O)(=O)Nc2csc(-c3ccncc3)n2)c(C)cc1Cl` [Example 176, 4-chloro-2,5-dimethyl-N-(2-(pyridin-4-yl)thiazol-4-yl)benzenesulfonamide], the AC50 rises from 0.2 µM to > 100 µM.

Going from `Cc1cc(S(=O)(=O)Nc2csc(C(=O)N3CCC[C@@H]3C)n2)c(C)cc1Cl` [Example 175, (S)-4-chloro-2,5-dimethyl-N-(2-(2-methylpyrrolidine-1-carbonyl)thiazol-4-yl)benzenesulfonamide] to `Cc1cc(S(=O)(=O)Nc2csc(C(=O)N(CC(N)=O)C3CCCCC3)n2)c(C)cc1Cl` [Example 179, N-(2-amino-2-oxoethyl)-4-((4-chloro-2,5-dimethylphenyl)sulfonamido)-N-cyclohexylthiazole-2-carboxamide], the AC50 rises from 3 µM to > 10 µM.

`Cc1cc(S(=O)(=O)Nc2csc(-c3ccn(C)n3)n2)c(C)cc1Cl` [Example 181, 4-chloro-2,5-dimethyl-N-(2-(1-methyl-1H-pyrazol-3-yl)thiazol-4-yl)benzenesulfonamide] and `Cc1cc2cc(NS(=O)(=O)c3cc(C)c(Cl)cc3C)ccc2[nH]1` [Example 184, 4-chloro-2,5-dimethyl-N-(2-methyl-1H-indol-5-yl)benzenesulfonamide] cannot be ordered by AC50: > 10 µM for the first, > 100 µM for the second.
